{"source": "patent US8987285B2", "about": "“Pharmaceutical compositions, dosage forms and new forms of the compound of formula (I), and methods of use thereof” (Portola Pharmaceuticals, Inc., priority 2010, dated 2015)", "assay": "Pharmacokinetic Study 1: FMI tablets fasted/fed versus reference IR capsule, crossover, healthy adult volunteers", "format": "in vivo, human", "conditions": "for Geometric-mean ratio (Fed/Fasted) of AUCinf / Geometric-mean ratio (Fed/Fasted) of AUClast / Geometric-mean ratio (Fed/Fasted) of Cmax: high fat breakfast versus fasted", "method": "This was an open label, randomized, four-period, incomplete crossover, single center study in healthy adult volunteers. There were 4 treatments in the study: 3 doses of the FMI (given fasting or fed following a high-fat breakfast) and one reference IR capsule (given fed after a typical breakfast). The term “FMI” refers to the dosage form of Example 7 (30 mg FMI) or Example 8 (75 mg FMI).\nEach subject was randomized to 1 of 18 treatment sequences, each with 4 treatment periods (Table 27). The first treatment period consisted of 1 of the 3 doses of FMI given fed, and treatment periods 2 to 4 consisted of 1 dose of IR capsule (fed) and 2 of the 3 doses of the FMI given fasted. […] Each subject therefore had 2 fasting treatments with the FMI formulation, 1 fed treatment with the FMI formulation and a reference treatment (IR capsule). Seventy two subjects enrolled and were dosed in the study with 70 completers.\nThe study consisted of a 28-day screening period, four baseline periods (one before each treatment period), four treatment periods with a wash out period of a minimum of 5 days, followed by a study completion evaluation approximately 72 hours after the last drug administration. Subjects who met the eligibility criteria at screening were admitted to baseline evaluations. All baseline safety evaluation results were available prior to dosing.\nFor fasted administration, elinogrel was administered in the morning, following an overnight fast of at least 10 hours. Subjects continued to fast until 4 hours post-dose. For fed administration of FMI tablets, elinogrel was administered in the morning, within 30 minutes of a high fat breakfast (approximately 1000 calories). Subjects continued to fast until 4 hours post-dose. For fed administration of the reference (IR capsule), it was administered in the morning, within 30 minutes of a typical breakfast (approximately 500 calories). Subjects continued to fast until 4 hours post-dose.\nSubjects were admitted to the study site approximately 12 hours prior to dosing in each period for baseline evaluations. Following a single dose of elinogrel, PK assessments were taken up to 48 hours post dose and safety assessments were made for up to 72 hours.\nSubjects were domiciled for 24 hours post dosing for PK sample collection, at which time they were discharged from the study site. Subjects returned on the following 2 mornings for 48 hour PK and 72 hour safety samples. Following the 72 hour safety assessments of treatment period 4 (or in the case of subject discontinuation) subjects underwent study completion evaluations and were discharged from the study. […].\nThis was a three-period, four-treatment crossover study design with an add-on food effect period (Period 1).\nTreatment 1 (T1)=elinogrel 30 mg FMI dose fasting\nTreatment 2 (T2)=elinogrel 75 mg FMI dose fasting\nTreatment 3 (T3)=elinogrel 150 mg FMI dose fasting\nReference (R)=elinogrel 150 mg IR capsule dose fed (typical breakfast); Example 6 (Reference)\nFed treatment 1 (F1)=elinogrel 30 mg FMI dose fed (high fat breakfast)\nFed treatment 2 (F2)=elinogrel 75 mg FMI dose fed (high fat breakfast)\nFed treatment 3 (F3)=elinogrel 150 mg FMI dose fed (high fat breakfast)\nSubjects will received the following treatments in a randomized order: • Treatment (T1, F1) with IR (IR=immediate release) tablet of Example 7 containing pH-modifying alkalizing agent, 30 mg in fasted and fed state. • Treatment (T2, F2) with IR (IR=immediate release) tablet of Example 8 containing pH-modifying alkalizing agent, 75 mg in fasted and fed state • Treatment (R) with 2×IR (IR=immediate release) capsule of Example 6 (Reference): 2×75 mg (150 mg) in fed state. • Treatment (T3, F3) with 2×IR (IR=immediate release) tablet of Example 8 containing pH-modifying alkalizing agent, 2×75 mg (150 mg) in fasted and fed state.\nTo evaluate the food effect, the geometric mean ratio for PK parameters of the fed versus fasted for each dose level and its 90% CI was estimated as shown in Table 29 below.", "data": [{"smiles": "CNc1cc2[nH]c(=O)n(-c3ccc(NC(=O)NS(=O)(=O)c4ccc(Cl)s4)cc3)c(=O)c2cc1F", "note": "[compound of formula (II), elinogrel]", "values": [{"measurement": "decrease of AUC by high fat meal", "setting": "30 mg dose", "value": "44-52%"}, {"measurement": "decrease of Cmax by high fat meal", "setting": "30 mg dose", "value": 58, "unit": "%"}, {"measurement": "decrease of AUC by high fat meal", "setting": "75 mg dose", "value": "14-18%"}, {"measurement": "decrease of Cmax by high fat meal", "setting": "75 mg dose", "value": 36, "unit": "%"}, {"measurement": "decrease of AUC by high fat meal", "setting": "150 mg dose", "value": "29-30%"}, {"measurement": "decrease of Cmax by high fat meal", "setting": "150 mg dose", "value": 48, "unit": "%"}, {"measurement": "Geometric-mean ratio (Fed/Fasted) of AUCinf", "setting": "FMI 30 mg", "value": 0.48}, {"measurement": "Geometric-mean ratio (Fed/Fasted) of AUClast", "setting": "FMI 30 mg", "value": 0.56}, {"measurement": "Geometric-mean ratio (Fed/Fasted) of Cmax", "setting": "FMI 30 mg", "value": 0.42}, {"measurement": "Geometric-mean ratio (Fed/Fasted) of AUCinf", "setting": "FMI 75 mg", "value": 0.86}, {"measurement": "Geometric-mean ratio (Fed/Fasted) of AUClast", "setting": "FMI 75 mg", "value": 0.82}, {"measurement": "Geometric-mean ratio (Fed/Fasted) of Cmax", "setting": "FMI 75 mg", "value": 0.64}, {"measurement": "Geometric-mean ratio (Fed/Fasted) of AUCinf", "setting": "FMI 150 mg", "value": 0.71}, {"measurement": "Geometric-mean ratio (Fed/Fasted) of AUClast", "setting": "FMI 150 mg", "value": 0.70}, {"measurement": "Geometric-mean ratio (Fed/Fasted) of Cmax", "setting": "FMI 150 mg", "value": 0.52}]}]}
